# Values quoted from earlier work as cited in patent US8288437B2, “Salts, aqueous liquid compositions containing salts of abscisic acid analogs and methods of their preparation” (Valent BioSciences Corporation, priority 2008, dated 2012).
# Conditions: pure water at room temperature
compound,measurement,value
"CC1=CC(=O)CC(C)(C)[C@@]1(O)/C=C/C(C)=C\C(=O)O [(S)-(+)-abscisic acid, 2-cis-,4-trans-(S)-(+)-abscisic acid]",highest concentration that can be achieved in pure water,≤ 3000 ppm
